Reference: patent US12391666B2, “Indoline-1-formamide compound, preparation method therefor, and medical use thereof” (Beijing Innocare Pharma Tech Co., Ltd., priority 2018, dated 2025)

Key:
Type in all cases: biochemical
VEGFR1 = VEGFR1 (Homo sapiens (Human), UniProt P17948); assay: VEGFR1 activity inhibition testing (HTRF in vitro kinase assay); settings: humanized recombinant VEGFR1 protein, 0.8 μM ATP
Procedure: VEGFR1 Activity Inhibition Testing
An in vitro kinase assay was used to evaluate the effect of the compounds of the present invention on VEGFR1 activity.
(§1) The experimental method is summarized as follows:
The in vitro activity of VEGFR1 was determined by detecting the phosphorylation level of the substrate in the kinase reaction using a homogeneous time-resolved fluorescence (HTRF) kinase detection kit (Cisbio, catalog number 62TKOPEC). The reaction buffer contains an enzyme reaction buffer (1×) provided in the kit, 5 mM MgCl2, 1 mM MnCl2, 1 mM DTT. […]
4 μL of Compound solution and 2 μL of VEGFR1 kinase solution were added to a 384-well detection plate (Corning, catalog number 4512), mixed uniformly and incubated at room temperature for 15 minutes. […] Then 10 μL of the assay buffer equal to the volume of the reaction was added, mixed uniformly and allowed to stand at room temperature for 30 minutes, and then the reaction progress was detected with an Envision plate reader (Perkin Elmer) at wavelengths of 620 nm and 665 nm. […] The inhibition percentage of the compound on VEGFR1 activity can be calculated using the following equation: Percentage of inhibition=100−100*(signal value of test compound at a specific concentration−signal value of negative control)/(signal value of positive control−signal value of negative control) […]

VEGFR2 = VEGFR2 (Homo sapiens (Human), UniProt P35968); assay: VEGFR2 activity inhibition testing (HTRF in vitro kinase assay); settings: humanized recombinant VEGFR2 protein, 3.5 μM ATP
Procedure: (§2) The IC50 value of the compound is calculated from 8 concentration points with the XLfit (ID Business Solutions Ltd., UK) software through the following equation: Y=Bottom+(Top−Bottom)/(1+10^((log IC50−X)*slope factor)) • where Y is the inhibition percentage, X is the logarithm of the concentration of the test compound, Bottom is the maximum inhibition percentage, Top is the minimum inhibition percentage, and slope factor is the slope coefficient of the curve. VEGFR2 Activity Inhibition Testing
An in vitro kinase assay was used to evaluate the effect of the compounds of the present invention on VEGFR2 activity.
as §1
The in vitro activity of VEGFR2 was determined by detecting the phosphorylation level of the substrate in the kinase reaction using a homogeneous time-resolved fluorescence (HTRF) kinase detection kit (Cisbio, catalog number 62TKOPEC). The reaction buffer contains an enzyme reaction buffer (1×) provided in the kit, 5 mM MgCl2, 1 mM MnCl2, 1 mM DTT, 0.01% BSA and 0.005% Tween 20. The humanized recombinant VEGFR2 protein (Cat. No. 10012-H20B1) was purchased from Sino Biological Inc., and diluted to a 0.3 ng/μL kinase solution with the reaction buffer. The substrate reaction solution includes 0.3 μM biotin-labeled tyrosine kinase substrate and 3.5 μM ATP which were diluted with the reaction buffer. The assay buffer includes 0.1 ng/μL Eu^3+ labeled cage antibody and 18.75 nM streptavidin labeled XL665 (Cisbio, catalog number 610SAXLB) which were diluted with the reaction buffer.
The compound was dissolved and diluted to 10 μM in 100% DMSO, then a 4-fold serial dilution was performed with DMSO to the lowest concentration of 0.61 nM, and each concentration point was diluted 40-fold with the reaction buffer.
4 μL of Compound solution and 2 μL of VEGFR2 kinase solution were added to a 384-well detection plate (Corning, catalog number 4512), mixed uniformly and incubated at room temperature for 15 minutes. Then 4 μL of the substrate reaction solution was added, and the reaction mixture was incubated at room temperature for 30 minutes. Then 10 μL of the assay buffer equal to the volume of the reaction was added, mixed uniformly and allowed to stand at room temperature for 30 minutes, and then the reaction progress was detected with an Envision plate reader (Perkin Elmer) at wavelengths of 620 nm and 665 nm. The ratio of 665/620 is positively correlated with the phosphorylation degree of the substrate, thereby detecting the activity of VEGFR2 kinase. In this experiment, the group without VEGFR2 kinase protein was used as a negative control (100% inhibition), and the group with VEGFR2 kinase protein but no compound was used as a positive control (0% inhibition). The inhibition percentage of the compound on VEGFR2 activity can be calculated using the following equation: Percentage of inhibition=100−100*(signal value of test compound at a specific concentration−signal value of negative control)/(signal value of positive control—signal value of negative control)
as §2, with “VEGFR3” for “VEGFR2”

VEGFR3 = VEGFR3 (Homo sapiens (Human), UniProt P35916); assay: VEGFR3 activity inhibition testing (HTRF in vitro kinase assay); settings: humanized recombinant VEGFR3 protein, 0.4 μM ATP
Procedure: as §2, with “VEGFR3” for “VEGFR2”
An in vitro kinase assay was used to evaluate the effect of the compounds of the present invention on VEGFR3 activity.
as §1
The in vitro activity of VEGFR3 was determined by detecting the phosphorylation level of the substrate in the kinase reaction using a HTRF kinase detection kit (Cisbio, catalog number 62TK0PEC). […]
4 μL of Compound solution and 2 μL of VEGFR3 kinase solution were added to a 384-well detection plate (Corning, catalog number 4512), mixed uniformly and incubated at room temperature for 15 minutes. […] Then 10 μL of the assay buffer equal to the volume of the reaction was added, mixed uniformly and allowed to stand at room temperature for 30 minutes, and then the reaction progress was detected with an Envision plate reader (Perkin Elmer) at wavelengths of 620 nm and 665 nm. […]

VEGFR2, sequence (P35968 20-1356): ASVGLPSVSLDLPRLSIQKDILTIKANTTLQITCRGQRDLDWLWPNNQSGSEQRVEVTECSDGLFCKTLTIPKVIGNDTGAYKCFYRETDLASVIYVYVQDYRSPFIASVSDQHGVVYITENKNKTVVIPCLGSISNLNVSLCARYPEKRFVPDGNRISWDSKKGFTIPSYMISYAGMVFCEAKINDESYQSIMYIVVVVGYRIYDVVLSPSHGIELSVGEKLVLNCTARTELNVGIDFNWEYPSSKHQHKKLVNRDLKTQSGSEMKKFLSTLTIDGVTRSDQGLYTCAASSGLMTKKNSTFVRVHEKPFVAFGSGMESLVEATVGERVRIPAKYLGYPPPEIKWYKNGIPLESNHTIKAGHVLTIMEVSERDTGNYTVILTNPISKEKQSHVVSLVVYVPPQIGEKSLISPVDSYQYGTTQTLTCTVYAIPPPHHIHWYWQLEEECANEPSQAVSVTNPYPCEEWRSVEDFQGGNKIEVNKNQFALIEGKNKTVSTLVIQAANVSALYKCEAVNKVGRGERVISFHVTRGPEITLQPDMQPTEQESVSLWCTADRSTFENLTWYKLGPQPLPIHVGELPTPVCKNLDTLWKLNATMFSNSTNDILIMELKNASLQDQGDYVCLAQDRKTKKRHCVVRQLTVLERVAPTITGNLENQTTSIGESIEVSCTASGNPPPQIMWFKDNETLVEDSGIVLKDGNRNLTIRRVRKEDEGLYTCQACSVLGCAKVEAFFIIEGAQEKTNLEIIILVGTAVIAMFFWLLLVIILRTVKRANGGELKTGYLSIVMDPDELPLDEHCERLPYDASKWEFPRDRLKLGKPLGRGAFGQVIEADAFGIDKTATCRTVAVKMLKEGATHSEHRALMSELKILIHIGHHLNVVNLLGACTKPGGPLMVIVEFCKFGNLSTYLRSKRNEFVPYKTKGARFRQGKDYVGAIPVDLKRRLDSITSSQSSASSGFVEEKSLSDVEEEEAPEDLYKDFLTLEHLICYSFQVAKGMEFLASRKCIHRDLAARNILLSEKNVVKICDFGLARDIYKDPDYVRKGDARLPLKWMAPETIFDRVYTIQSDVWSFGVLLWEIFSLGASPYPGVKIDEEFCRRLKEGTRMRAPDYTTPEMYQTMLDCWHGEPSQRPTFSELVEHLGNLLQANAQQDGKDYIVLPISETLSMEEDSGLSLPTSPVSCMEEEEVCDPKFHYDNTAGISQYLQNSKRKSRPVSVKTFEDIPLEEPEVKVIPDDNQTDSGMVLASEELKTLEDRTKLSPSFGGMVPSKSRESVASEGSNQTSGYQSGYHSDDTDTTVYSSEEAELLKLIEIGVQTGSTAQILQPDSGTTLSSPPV
VEGFR3, sequence (P35916 25-1363): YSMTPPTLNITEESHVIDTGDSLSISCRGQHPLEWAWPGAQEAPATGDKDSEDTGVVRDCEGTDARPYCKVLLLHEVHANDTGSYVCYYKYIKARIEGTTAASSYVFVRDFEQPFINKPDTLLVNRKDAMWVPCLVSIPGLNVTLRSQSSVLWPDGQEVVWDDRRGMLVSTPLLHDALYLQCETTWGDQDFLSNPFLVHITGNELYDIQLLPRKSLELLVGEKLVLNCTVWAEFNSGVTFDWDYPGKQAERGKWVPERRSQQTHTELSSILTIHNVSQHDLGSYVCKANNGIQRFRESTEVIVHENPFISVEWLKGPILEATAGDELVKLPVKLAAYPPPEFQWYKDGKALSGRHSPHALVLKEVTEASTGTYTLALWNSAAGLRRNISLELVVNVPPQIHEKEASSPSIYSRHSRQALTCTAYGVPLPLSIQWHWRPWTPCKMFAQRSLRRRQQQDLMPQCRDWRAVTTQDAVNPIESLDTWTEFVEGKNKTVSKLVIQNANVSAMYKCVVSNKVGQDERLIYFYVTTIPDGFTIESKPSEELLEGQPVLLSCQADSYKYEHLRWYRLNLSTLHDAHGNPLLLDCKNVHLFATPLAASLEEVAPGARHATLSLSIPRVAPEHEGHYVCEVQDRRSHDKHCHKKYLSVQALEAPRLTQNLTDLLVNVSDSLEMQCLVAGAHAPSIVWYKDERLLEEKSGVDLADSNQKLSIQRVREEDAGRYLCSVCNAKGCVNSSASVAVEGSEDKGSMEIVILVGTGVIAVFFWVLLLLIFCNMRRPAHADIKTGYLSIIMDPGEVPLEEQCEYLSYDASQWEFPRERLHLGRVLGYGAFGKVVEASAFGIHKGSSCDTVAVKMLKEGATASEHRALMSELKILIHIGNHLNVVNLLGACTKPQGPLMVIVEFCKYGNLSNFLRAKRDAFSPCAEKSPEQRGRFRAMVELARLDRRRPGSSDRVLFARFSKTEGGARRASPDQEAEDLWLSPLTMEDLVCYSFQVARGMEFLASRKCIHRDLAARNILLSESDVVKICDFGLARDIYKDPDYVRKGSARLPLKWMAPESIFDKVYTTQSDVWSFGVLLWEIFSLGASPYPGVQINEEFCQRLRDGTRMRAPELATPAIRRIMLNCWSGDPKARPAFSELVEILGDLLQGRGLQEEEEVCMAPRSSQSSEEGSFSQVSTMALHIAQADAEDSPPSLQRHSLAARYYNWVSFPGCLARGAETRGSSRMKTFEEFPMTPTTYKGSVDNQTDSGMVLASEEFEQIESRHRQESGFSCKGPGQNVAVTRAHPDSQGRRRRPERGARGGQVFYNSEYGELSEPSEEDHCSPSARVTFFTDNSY
VEGFR1, sequence (P17948 27-1338): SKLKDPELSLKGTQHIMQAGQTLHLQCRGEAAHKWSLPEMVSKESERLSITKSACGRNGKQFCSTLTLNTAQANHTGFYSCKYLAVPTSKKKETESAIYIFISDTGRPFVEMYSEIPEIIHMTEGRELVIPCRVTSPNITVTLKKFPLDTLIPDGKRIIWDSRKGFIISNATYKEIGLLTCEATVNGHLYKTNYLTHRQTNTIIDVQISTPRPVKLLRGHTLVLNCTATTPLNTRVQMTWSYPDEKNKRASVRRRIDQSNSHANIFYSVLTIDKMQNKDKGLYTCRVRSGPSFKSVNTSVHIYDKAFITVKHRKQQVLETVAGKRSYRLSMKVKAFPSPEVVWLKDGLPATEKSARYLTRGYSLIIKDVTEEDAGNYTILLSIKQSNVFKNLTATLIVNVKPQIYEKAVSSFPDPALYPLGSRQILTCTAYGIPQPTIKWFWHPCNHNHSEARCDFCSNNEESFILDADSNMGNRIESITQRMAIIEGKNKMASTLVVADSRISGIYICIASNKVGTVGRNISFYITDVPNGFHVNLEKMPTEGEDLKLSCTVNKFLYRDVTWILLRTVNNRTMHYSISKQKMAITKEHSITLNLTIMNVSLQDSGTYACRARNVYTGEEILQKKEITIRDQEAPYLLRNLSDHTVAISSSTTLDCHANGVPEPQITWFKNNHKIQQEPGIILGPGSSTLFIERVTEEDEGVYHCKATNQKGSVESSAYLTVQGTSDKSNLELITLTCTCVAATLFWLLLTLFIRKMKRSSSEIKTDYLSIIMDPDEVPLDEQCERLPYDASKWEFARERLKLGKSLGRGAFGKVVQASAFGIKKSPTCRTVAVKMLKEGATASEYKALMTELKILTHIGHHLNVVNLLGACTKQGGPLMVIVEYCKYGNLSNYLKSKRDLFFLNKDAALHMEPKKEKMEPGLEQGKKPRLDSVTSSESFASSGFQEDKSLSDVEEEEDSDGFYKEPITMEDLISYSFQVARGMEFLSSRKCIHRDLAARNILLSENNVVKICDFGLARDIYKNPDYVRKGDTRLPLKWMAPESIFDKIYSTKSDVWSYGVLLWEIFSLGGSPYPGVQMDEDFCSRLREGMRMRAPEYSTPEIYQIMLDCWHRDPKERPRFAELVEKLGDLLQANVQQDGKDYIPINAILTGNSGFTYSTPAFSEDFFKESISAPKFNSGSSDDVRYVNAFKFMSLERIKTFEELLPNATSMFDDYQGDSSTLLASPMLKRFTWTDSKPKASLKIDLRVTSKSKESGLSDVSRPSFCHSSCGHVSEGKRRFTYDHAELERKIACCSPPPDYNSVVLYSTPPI

IC50 (VEGFR1) | IC50 (VEGFR2) | IC50 (VEGFR3) | Compound
10 to 100 nM | < 10 nM | < 10 nM | COc1cc2nccc(Oc3ccc4c(c3)CCN4C(=O)NC3CC3)c2cc1C(N)=O [Compound 1, 4-((1-(cyclopropylcarbamoyl)indolin-5-yl)oxy)-7-methoxyquinoline-6-carboxamide]
 | 10 to 100 nM |  | NC(=O)c1cc2c(Oc3ccc4c(c3)CCN4C(=O)NC3CC3)ccnc2cc1O [Compound 2, 4-((1-(cyclopropylcarbamoyl)indolin-5-yl)oxy)-7-hydroxyquinoline-6-carboxamide]
 | 10 to 100 nM |  | CNC(=O)N1CCc2cc(Oc3ccnc4cc(OC)c(C(N)=O)cc34)ccc21 [Compound 3, 7-methoxy-4-((1-(methylcarbamoyl)indolin-5-yl)oxy)quinoline-6-carboxamide]
 | < 10 nM |  | COc1cc2nccc(Oc3ccc4c(c3)CCN4C(=O)Nc3ccc(F)cc3)c2cc1C(N)=O [Compound 4, 4-((1-((4-fluorophenyl)carbamoyl)indolin-5-yl)oxy)-7-methoxyquinoline-6-carboxamide]
 | 10 to 100 nM |  | COc1cc2nccc(Oc3ccc4c(c3)CCN4C(=O)NC3CC3)c2cc1OC [Compound 5, N-cyclopropyl-5-((6,7-dimethoxyquinolin-4-yl)oxy)indoline-1-carboxamide]
 | < 10 nM |  | COc1cc2nccc(Oc3ccc4c(c3)CCN4C(=O)Nc3cc(C)on3)c2cc1C(N)=O [Compound 6, 7-methoxy-4-((1-((5-methylisoxazol-3-yl)carbamoyl)indolin-5-yl)oxy)quinoline-6-carboxamide]
